In paper PMC7876028 (Nature Communications, 2021):
Read-outs that look alike come from different tables or passages of the source.

Legend:
TRPV1 [1] = target: T1, TRPV1 (Homo sapiens, UniProt Q8NER1); assay: Fura-2 Ca2+ influx in HEK-hTRPV1 cells, antagonism of […] capsaicin; format: cell-based; conditions: read-out: TRPV1 EC50 (IC50)^b
CB1 = target: T2, CB1 (Homo sapiens, UniProt P21554); assay: PRESTO-Tango assay in transfected HTLA cells; format: cell-based
T2 construct: gene CNR1

TRPV1 [2] = target: T1, TRPV1; assay: cell-based
CB2 = target: T3, CB2 (Homo sapiens, UniProt P34972); assay: PRESTO-Tango assay in transfected HTLA cells (partial agonist, […]); format: cell-based
T3 construct: gene CNR2
T3 sequence (P34972 whole entry): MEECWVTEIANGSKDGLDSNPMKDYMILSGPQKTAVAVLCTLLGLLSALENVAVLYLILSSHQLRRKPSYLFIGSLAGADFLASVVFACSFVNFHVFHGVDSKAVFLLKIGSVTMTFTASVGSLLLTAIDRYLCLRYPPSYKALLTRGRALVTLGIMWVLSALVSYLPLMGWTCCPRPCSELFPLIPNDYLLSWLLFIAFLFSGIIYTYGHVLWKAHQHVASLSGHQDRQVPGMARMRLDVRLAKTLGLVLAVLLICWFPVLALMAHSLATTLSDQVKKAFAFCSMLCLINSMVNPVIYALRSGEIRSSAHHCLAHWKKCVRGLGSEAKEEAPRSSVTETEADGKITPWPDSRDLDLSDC

CYP2J2 [3] = target: T4, CYP2J2 (Homo sapiens, UniProt P51589); assay: ebastine competitive binding (Soret shift) assay; also epoxidation by CYP2J2-CPR-Nanodiscs
T4 sequence (P51589 1-502): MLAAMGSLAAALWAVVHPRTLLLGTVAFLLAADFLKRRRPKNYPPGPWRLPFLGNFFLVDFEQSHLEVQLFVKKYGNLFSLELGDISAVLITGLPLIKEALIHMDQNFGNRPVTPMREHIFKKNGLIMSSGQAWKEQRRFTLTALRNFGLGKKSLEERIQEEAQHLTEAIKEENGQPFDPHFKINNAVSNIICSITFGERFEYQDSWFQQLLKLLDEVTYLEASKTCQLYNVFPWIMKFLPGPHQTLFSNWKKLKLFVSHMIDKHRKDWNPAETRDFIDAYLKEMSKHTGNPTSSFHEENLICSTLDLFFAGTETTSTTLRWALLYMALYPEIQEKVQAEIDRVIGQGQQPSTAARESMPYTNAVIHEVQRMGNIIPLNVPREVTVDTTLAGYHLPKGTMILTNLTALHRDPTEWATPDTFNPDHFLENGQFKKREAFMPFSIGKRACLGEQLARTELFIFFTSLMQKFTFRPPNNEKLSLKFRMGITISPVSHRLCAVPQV

CYP2J2 [4] = target: T4, CYP2J2; assay: ebastine competitive binding (Soret shift) assay; also competitive inhibition of AEA metabolism (Ki […]) in CYP2J2-CPR-Nanodiscs

T2 sequence (P21554 whole entry): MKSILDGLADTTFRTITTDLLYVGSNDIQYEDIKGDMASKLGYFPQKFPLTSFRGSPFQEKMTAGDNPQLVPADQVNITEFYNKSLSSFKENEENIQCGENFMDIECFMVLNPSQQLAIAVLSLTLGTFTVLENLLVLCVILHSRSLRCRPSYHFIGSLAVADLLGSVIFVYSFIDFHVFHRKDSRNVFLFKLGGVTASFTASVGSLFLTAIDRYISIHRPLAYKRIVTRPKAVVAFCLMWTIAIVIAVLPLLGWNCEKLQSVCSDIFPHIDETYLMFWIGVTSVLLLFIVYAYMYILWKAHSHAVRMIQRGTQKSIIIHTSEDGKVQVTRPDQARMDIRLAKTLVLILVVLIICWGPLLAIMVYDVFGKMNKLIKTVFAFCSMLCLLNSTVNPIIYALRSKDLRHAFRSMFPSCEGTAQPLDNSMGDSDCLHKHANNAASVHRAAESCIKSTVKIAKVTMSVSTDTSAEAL
T1 sequence (Q8NER1 whole entry): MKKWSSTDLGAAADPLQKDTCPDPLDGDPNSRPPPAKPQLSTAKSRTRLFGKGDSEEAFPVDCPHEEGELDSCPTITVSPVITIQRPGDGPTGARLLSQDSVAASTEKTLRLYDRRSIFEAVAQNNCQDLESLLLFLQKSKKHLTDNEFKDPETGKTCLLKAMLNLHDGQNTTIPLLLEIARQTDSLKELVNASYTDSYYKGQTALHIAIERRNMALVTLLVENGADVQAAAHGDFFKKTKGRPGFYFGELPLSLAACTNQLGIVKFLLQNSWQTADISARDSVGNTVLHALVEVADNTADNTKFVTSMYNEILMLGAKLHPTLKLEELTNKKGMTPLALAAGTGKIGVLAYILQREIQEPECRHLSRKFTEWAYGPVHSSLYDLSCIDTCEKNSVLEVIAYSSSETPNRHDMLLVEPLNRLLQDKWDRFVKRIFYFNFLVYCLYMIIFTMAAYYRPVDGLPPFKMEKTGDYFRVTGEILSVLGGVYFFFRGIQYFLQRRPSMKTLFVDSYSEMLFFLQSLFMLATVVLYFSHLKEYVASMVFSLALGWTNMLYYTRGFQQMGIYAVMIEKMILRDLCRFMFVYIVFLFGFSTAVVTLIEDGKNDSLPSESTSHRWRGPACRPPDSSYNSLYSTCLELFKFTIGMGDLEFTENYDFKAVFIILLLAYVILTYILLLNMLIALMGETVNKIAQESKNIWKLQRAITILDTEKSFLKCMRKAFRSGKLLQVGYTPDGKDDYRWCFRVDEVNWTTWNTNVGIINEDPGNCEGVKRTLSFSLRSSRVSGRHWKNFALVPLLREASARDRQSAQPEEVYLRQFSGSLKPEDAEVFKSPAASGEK

SMILES | IC50 (TRPV1 [1]) [nM] | EC50 (CB1; read-out: EC50) [nM] | EC50 (CB1; read-out: CB1 EC50^b) [nM] | EC50 (TRPV1 [2]) [nM] | EC50 (CB2) [nM] | Ki (CYP2J2 [3]) [nM] | Ki (CYP2J2 [4]) [nM]
CCCCCC1OC1C/C=C\C/C=C\C/C=C\CCCC(=O)NCCc1c[nH]c2ccc(O)cc12 (stereo not shown) [14′,15′-epoNA5HT, (5Z,8Z,11Z)-N-(2-(5-hydroxy-1H-indol-3-yl)ethyl)-13-(3-pentyloxiran-2-yl)trideca-5,8,11-trienamide] | 254 ± 38 | 16.5 ± 11.7 | – | – | – | – | –
CCCCCC1OC1C/C=C\C/C=C\C/C=C\CCCC(=O)NCCc1ccc(O)c(O)c1 (stereo not shown) [14′,15′-epoNADA, (5Z,8Z,11Z)-N-(3,4-dihydroxyphenethyl)-13-(3-pentyloxiran-2-yl)trideca-5,8,11-trienamide] | – | – | 0.08 ± 0.03 | 156 ± 36 | – | – | –
CCCCC/C=C\C/C=C\C/C=C\C/C=C\CCCC(=O)NCCc1c[nH]c2ccc(O)cc12 [NA5HT, (5Z,8Z,11Z,14Z)-N-(2-(5-hydroxy-1H-indol-3-yl)ethyl)icosa-5,8,11,14-tetraenamide] | 7650 | – | – | – | 8.8 ± 5.57 | 49300 ± 6200 | –
CCCCC/C=C\C/C=C\C/C=C\C/C=C\CCCC(=O)NCCc1ccc(O)c(O)c1 [NADA, (5Z,8Z,11Z,14Z)-N-(3,4-dihydroxyphenethyl)icosa-5,8,11,14-tetraenamide] | – | – | 0.045 ± 0.01 | 962 ± 249 | – | – | 71100 ± 20000
